Data set [1] can be described thus: Cytotoxicity against human Hep3B cells after 24 hrs by MTT assay. It is filed as functional, cell-based, Hep 3B2.
A short description of data set [2]: Cytotoxicity against human PLC/PRF/5 cells after 24 hrs by MTT assay. It is filed as functional, cell-based. The following applies: PLC-PRF-5, 24 h. For orientation: Formazan colour is commonly taken as a measure of viable cells.
Data set [3] can be described thus: Cytotoxicity against human Hep3B cells after 24 hrs by MTT assay in presence of doxorubicin. It is filed as functional, cell-based, Hep 3B2.
A short description of data set [4]: Cytotoxicity against human PLC/PRF/5 cells after 24 hrs by MTT assay in presence of doxorubicin. The following applies: PLC-PRF-5, 24 h. It is filed as functional, cell-based.
Data set [5] deals with HepG2. As to the kind of experiment: Induction of necrosis in human doxorubicin-resistant HepG2 cells expressing p-gp assessed as LDH leakage at >50 uM after 24 hrs. It is filed as functional, cell-based. A general note: LDH leaks from cells whose membrane has failed.
In data set [6] the test system is HepG2. Nature of the data set: Induction of necrosis in human doxorubicin-resistant HepG2 cells expressing p-gp assessed as LDH leakage at 25 uM after 24 hrs. It is filed as functional, cell-based.
The subject of data set [7] is HepG2. As to the kind of experiment: Competitive inhibition of p-glycoprotein in doxorubicin-resistant human HepG2 cells assessed as reduction of doxorubicin efflux after 1 hr by primary Lineweaver-Burk plot analysis. It is filed as cell-based.
In data set [8] the test system is HepG2. As to the kind of experiment: Competitive inhibition of p-glycoprotein in human doxorubicin-resistant HepG2 cells assessed as reduction of doxorubicin efflux after 1 hr by primary Dixon plot analysis. It is filed as cell-based.
Data set [9] concerns HepG2. As to the kind of experiment: Induction of ROS generation in human HepG2 cells at 25 uM after 15 to 30 mins using H2DCFH dye by confocal microscopy in presence of PEG-SOD. It is filed as functional, cell-based.
The subject of data set [10] is HepG2. Nature of the data set: Induction of ROS generation in human HepG2 cells at 25 uM after 15 to 30 mins using H2DCFH dye by confocal microscopy in presence of PEG-catalase. It is filed as functional, cell-based.
Data set [11] deals with HepG2. As to the kind of experiment: Induction of ROS generation in human HepG2 cells after 15 to 30 mins using CM-H2DCFDA by flow cytometry. It is filed as functional, cell-based. On the technique in general: Flow cytometry measures light scatter and fluorescence of single cells or particles in a stream.
Data set [12] relates to HepG2. Nature of the data set: Induction of oxidative stress in human HepG2 cells assessed as decrease of GSSG level per gram of protein at 25 uM after 24 hrs using DTNB by enzymatic kinetic method relative to control. It is filed as functional.
In data set [13] the test system is HepG2. Nature of the data set: Induction of oxidative stress in human doxorubicin-resistant HepG2 cells expressing p-gp assessed as decrease of GSH level per gram of protein at 1.56 to 3.12 uM after 24 hrs using DTNB by enzymatic kinetic method relative to control. It is filed as functional, cell-based.
In data set [14] the test system is HepG2. Nature of the data set: Induction of apoptosis in human HepG2 cells assessed as increase in PARP cleavage after 24 hrs by Western blotting. It is filed as functional, cell-based.
Data set [15] relates to HepG2. As to the kind of experiment: Induction of apoptosis in human doxorubicin-resistant HepG2 cells expressing p-gp assessed as activation of caspase-3/8/9 after 24 hrs by Western blotting. It is filed as functional, cell-based.
Data set [16] concerns HepG2. As to the kind of experiment: Induction of apoptosis in human doxorubicin-resistant HepG2 cells expressing p-gp assessed as activation of caspase-3/8/9 at 12.5 after 24 hrs by Western blotting in presence of Z-VAD-FMK. It is filed as functional, cell-based.
Data set [17] deals with HepG2. Nature of the data set: Induction of apoptosis in human HepG2 cells assessed as activation of caspase-3/8/9 at 12.5 after 24 hrs by Western blotting in presence of Z-IETD-FMK. It is filed as functional, cell-based.
For data set [18], the target named is T1, Mitogen-activated protein kinase; ERK1/ERK2 (Homo sapiens) (UniProt P27361+P28482). Nature of the data set: Inhibition of ERK1/2 phosphorylation in human doxorubicin-resistant HepG2 cells expressing p-gp at 1.56 to 25 uM by Western blot analysis. It is filed as cell-based.
T1 sequence (P27361 whole entry, looked up): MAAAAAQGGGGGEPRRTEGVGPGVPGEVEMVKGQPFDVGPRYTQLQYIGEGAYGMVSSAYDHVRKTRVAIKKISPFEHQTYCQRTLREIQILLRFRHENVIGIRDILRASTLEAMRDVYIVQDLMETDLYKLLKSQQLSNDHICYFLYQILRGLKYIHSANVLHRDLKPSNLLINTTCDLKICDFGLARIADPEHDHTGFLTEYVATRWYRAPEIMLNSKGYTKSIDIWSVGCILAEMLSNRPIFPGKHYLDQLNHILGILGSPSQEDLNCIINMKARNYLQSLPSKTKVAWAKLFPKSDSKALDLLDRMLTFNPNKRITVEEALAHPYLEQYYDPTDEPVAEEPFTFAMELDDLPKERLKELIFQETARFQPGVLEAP
T1 sequence (P28482 whole entry, looked up): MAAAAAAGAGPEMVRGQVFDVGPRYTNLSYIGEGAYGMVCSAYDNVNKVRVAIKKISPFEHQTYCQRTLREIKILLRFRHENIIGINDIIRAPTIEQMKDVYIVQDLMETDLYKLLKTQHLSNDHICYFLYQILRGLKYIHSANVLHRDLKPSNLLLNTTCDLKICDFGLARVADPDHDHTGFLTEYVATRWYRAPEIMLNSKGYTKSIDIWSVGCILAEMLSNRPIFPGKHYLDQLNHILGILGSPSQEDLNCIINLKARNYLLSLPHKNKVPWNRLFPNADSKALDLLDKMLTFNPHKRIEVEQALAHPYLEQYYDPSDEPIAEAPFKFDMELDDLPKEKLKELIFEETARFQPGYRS
The target in data set [19] is T2, MAP kinase p38 (Homo sapiens) (UniProt O15264+Q15759+Q16539+P53778). As to the kind of experiment: Inhibition of p38 MAPK phosphorylation in human doxorubicin-resistant HepG2 cells expressing p-gp at 1.56 to 25 uM by Western blot analysis. It is filed as cell-based.
The subject of data set [20] is HepG2. As to the kind of experiment: Increase of SAPK/JNK phosphorylation in human HepG2 cells at 1.56 to 25 uM by Western blot analysis. It is filed as cell-based.
Data set [21] deals with HepG2. As to the kind of experiment: Effect on nonphosphorylated ERK1/ERK2 level in human doxorubicin-resistant HepG2 cells expressing p-gp at 25 uM by Western blot analysis. It is filed as ADME, cell-based. The settings on record: hepg2, 25 µM.
In data set [22] the test system is HepG2. Nature of the data set: Effect on nonphosphorylated SAPK/JNK level in human HepG2 cells at 25 uM by Western blot analysis. The following applies: hepg2, 25 µM. It is filed as ADME, cell-based.
Data set [23] addresses T1, Mitogen-activated protein kinase; ERK1/ERK2 (Homo sapiens). Nature of the data set: Inhibition of ERK1/2 phosphorylation in human HepG2 cells at 1.56 to 25 uM by Western blot analysis in presence of NAC. It is filed as cell-based.
Data set [24] has as its target T2, MAP kinase p38 (Homo sapiens). As to the kind of experiment: Inhibition of p38 MAPK phosphorylation in human doxorubicin-resistant HepG2 cells expressing p-gp at 1.56 to 25 uM by Western blot analysis in presence of NAC. It is filed as cell-based.

Each structure is given as a SMILES string. Active and inactive are the calls of the source. The calls are words filed in the database; no cut-off is given here.

In general, EC50 refers to the concentration at which the effect is half-maximal. Regarding `CC(C)C1=Cc2ccc3c(c2C(=O)C1=O)CCCC3(C)C` [MILTIRONE], the EC50 in data set [1] worked out at 14.8 µM; in data set [2] it was 27.1 µM; in data set [3], 6.6 µM; in data set [4] it was 17.4 µM. The result in data set [5], in data set [14], in data set [15] and in data set [20] was Active. Besides, the outcome in data set [6], in data set [9], in data set [10], in data set [13], in data set [16] and in data set [17] was inactive. Also, the inhibition entry in [7], in data set [8], in data set [18] and in [19] was “Active” in each case. Also, the Activity result in [11] was “Dose-dependent effect”; in data set [12] it was 3.5 µmol; in data set [21], “Non-toxic”; in data set [22] it was “Non-toxic”. For the same molecule, the inhibition result in data set [23] and in [24] was “inactive” each time.
